This is an account of results in US20230271954A1 (Gossamer Bio Services, Inc., priority 2020, published 2023).

Some results are limits rather than exact numbers.

One experiment has as its target DGKα (Homo sapiens, UniProt P23743). The experiment is described as follows: DGKα biochemical assay (ADP-Glo). As to conditions: read-out: DGK α IC50. The essentials:
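ADP-Glo kinase assay using OAG/PS (1:2) lipid substrate, sonicated, in HEPES pH 7.0 buffer with MgCl2, CaCl2, DTT, BSA, Triton X-100. Enzyme preincubated with compound 30 min at RT; substrate with ATP (DGKα: 400 μM) added, 45 min RT. Luminescence read; % inhibition vs DMSO and no-enzyme controls.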

The target of another experiment is T1, DGKζ (Homo sapiens, UniProt Q13574).
T1 construct: purchased Carna 12-110
Kind of experiment: DGKζ biochemical assay (ADP-Glo). As to conditions: read-out: DGK ζ IC50. (In general: ADP-Glo first removes unused ATP, then detects ADP through luciferase.)

By IC50 is commonly meant the concentration that inhibits the measured activity by half.

DGKα, sequence (P23743 whole entry): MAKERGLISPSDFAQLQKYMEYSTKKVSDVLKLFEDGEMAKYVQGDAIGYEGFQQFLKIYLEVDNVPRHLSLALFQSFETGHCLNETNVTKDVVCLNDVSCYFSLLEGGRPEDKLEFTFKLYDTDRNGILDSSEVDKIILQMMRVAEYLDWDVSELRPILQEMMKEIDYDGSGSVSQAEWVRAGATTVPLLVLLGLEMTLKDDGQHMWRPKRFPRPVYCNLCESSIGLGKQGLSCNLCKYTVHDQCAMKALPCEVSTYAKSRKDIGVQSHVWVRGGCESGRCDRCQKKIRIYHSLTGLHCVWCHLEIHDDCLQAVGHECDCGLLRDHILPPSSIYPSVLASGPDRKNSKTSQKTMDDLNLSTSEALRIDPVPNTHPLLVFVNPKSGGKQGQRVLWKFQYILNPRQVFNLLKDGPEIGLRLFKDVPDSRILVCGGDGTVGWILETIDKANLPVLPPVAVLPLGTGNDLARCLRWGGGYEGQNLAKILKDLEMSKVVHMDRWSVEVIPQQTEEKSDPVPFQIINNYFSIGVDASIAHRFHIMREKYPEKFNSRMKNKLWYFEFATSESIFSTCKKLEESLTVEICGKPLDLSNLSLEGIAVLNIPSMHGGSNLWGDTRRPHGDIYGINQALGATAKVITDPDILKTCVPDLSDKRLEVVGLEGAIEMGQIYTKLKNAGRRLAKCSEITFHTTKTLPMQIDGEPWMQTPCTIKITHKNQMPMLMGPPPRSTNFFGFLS
T1 sequence (Q13574 1-929 isoform Q13574-4): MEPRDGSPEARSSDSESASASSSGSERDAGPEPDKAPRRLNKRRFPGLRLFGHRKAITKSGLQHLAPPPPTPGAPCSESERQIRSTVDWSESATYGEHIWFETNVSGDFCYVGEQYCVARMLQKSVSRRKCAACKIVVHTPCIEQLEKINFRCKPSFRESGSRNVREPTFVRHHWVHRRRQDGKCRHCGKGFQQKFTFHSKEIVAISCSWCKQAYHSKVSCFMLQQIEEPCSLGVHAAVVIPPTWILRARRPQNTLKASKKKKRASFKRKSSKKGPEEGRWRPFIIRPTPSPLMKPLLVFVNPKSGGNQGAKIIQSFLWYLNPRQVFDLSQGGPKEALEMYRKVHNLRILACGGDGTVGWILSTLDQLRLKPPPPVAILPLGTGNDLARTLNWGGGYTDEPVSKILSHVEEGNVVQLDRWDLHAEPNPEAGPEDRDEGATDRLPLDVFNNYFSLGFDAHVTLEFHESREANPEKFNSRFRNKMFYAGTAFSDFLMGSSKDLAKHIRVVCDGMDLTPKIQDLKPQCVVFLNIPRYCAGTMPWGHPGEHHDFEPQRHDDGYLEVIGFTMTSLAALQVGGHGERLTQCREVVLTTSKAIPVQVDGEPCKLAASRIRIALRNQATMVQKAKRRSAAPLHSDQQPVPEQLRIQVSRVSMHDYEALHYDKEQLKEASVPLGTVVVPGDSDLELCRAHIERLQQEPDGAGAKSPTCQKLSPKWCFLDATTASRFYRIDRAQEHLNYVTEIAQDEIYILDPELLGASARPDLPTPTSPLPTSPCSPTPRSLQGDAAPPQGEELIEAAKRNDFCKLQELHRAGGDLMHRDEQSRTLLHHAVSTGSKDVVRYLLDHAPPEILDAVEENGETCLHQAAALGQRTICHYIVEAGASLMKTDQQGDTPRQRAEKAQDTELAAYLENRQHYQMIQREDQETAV

With `Cn1c(=O)c([N+](=O)[O-])c(N2CCC(N(CC3(C)COC3)c3ccccc3)CC2)c2nc(C#N)ccc21` [Example 1D, 5-Methyl-8-(4-(((3-methyloxetan-3-yl)methyl)(phenyl)amino)piperidin-1-yl)-7-nitro-6-oxo-5,6-dihydro-1,5-naphthyridine-2-carbonitrile], the IC50 at DGKα is 100 to 1000 nM; on DGKζ it was ≥ 1000 nM.
For `COc1cc(N(CC2CC2)[C@H]2CC[C@@H](N(C)c3cc(=O)n(C)c4ccc(C#N)nc34)CC2)ccc1F` [Example 38, cis-8-((4-((cyclopropylmethyl)(4-fluoro-3-methoxyphenyl)amino)cyclohexyl)(methyl)amino)-5-methyl-6-oxo-5,6-dihydro-1,5-naphthyridine-2-carbonitrile] the same measures were 100 to 1000 nM and 100 to 1000 nM.
For `Cc1cc(F)ccc1N(CC1CC1)[C@H]1CC[C@@H](N(C)c2c(C#N)c(=O)n(C)c3ccc(C#N)nc23)CC1` [Example 119, cis-8-((4-((cyclopropylmethyl)(4-fluoro-2-methylphenyl)amino)cyclohexyl)(methyl)amino)-5-methyl-6-oxo-5,6-dihydro-1,5-naphthyridine-2,7-dicarbonitrile] the same measures were ≥ 1000 nM and 10 to 100 nM.
For `Cc1cc(F)ccc1N(CC1CC(F)(F)C1)[C@H]1CC[C@@H](N(C)c2cc(=O)n(C)c3ccc(C#N)nc23)CC1` [Example 184, cis-8-((-4-(((3,3-difluorocyclobutyl)methyl)(4-fluoro-2-methylphenyl)amino)cyclohexyl)(methyl)amino)-5-methyl-6-oxo-5,6-dihydro-1,5-naphthyridine-2-carbonitrile] the same measures were 100 to 1000 nM and 10 to 100 nM.
Turning to `Cc1cc(F)cc(N(CC2CCC2)[C@H]2CC[C@@H](N(C)c3c(C#N)c(=O)n(C)c4ccc(C#N)nc34)CC2)c1` [Example 113, cis-8-((-4-((cyclobutylmethyl)(3-fluoro-5-methylphenyl)amino)cyclohexyl)(methyl)amino)-5-methyl-6-oxo-5,6-dihydro-1,5-naphthyridine-2,7-dicarbonitrile], the half-inhibitory concentration (IC50) at DGKα and on DGKζ was 10 to 100 nM throughout.
In the case of `Cn1c(=O)c(C#N)c(N(C)[C@H]2CC[C@@H](N(CC3COC3)c3ccc(F)cc3)CC2)c2nc(Cl)ccc21` [Example 3M, cis-6-Chloro-4-[[4-(N-4-fluorophenyl-N-oxetan-3-ylmethylanilino)cyclohexyl]-methylamino]-1-methyl-2-oxo-1,2-dihydro-1,5-naphthyridine-3-carbonitrile], the 50% inhibitory concentration (IC50) is 10 to 100 nM at DGKα and 100 to 1000 nM on DGKζ.
On the same counts, the results for `CC(C)CN(c1ccc(F)cc1)[C@H]1CC[C@@H](N(C)c2c(C#N)c(=O)n(C)c3ccc(Cl)nc23)CC1` [Example 48, cis-6-chloro-4-((-4-((4-fluorophenyl)(isobutyl)amino)cyclohexyl)(methyl)amino)-1-methyl-2-oxo-1,2-dihydro-1,5-naphthyridine-3-carbonitrile] are 100 to 1000 nM and ≥ 1000 nM.
For `O=C(N[C@H]1CC[C@@H](N(CC2CC2)c2ccccc2)CC1)c1cnn2cccnc12` [Example 4G, cis-N-(4-((Cyclopropylmethyl)(phenyl)amino)cyclohexyl) pyrazolo[1,5-a]pyrimidine-3-carboxamide] the same measures were ≥ 1000 nM and ≥ 1000 nM.
For `Cn1c(=O)c(C#N)c(N(C)[C@H]2CC[C@H](N(CC3COC3)c3ccc(F)cc3O)CC2)c2nc(Cl)ccc21` [Example 3O, trans-6-chloro-4-((4-((4-fluoro-2-hydroxyphenyl)(oxetan-3-ylmethyl)amino)cyclohexyl)(methyl)amino)-1-methyl-2-oxo-1,2-dihydro-1,5-naphthyridine-3-carbonitrile] the same measures were 100 to 1000 nM and ≥ 1000 nM.
On to `Cc1cc(N(CC2CCC2)[C@H]2CC[C@H](N(C)c3c(C#N)c(=O)n(C)c4ccc(C#N)nc34)CC2)ccc1F` [Example 126, trans-8-((-4-((cyclobutylmethyl)(4-fluoro-3-methylphenyl)amino)cyclohexyl)(methyl)amino)-5-methyl-6-oxo-5,6-dihydro-1,5-naphthyridine-2,7-dicarbonitrile], for which the IC50 at DGKα and on DGKζ was 100 to 1000 nM throughout.
For `Cc1cc(F)ccc1N(CC1CCC1)[C@H]1CC[C@H](N(C)c2c(C#N)c(=O)n(C)c3ccc(Cl)nc23)CC1` [Example 104, trans-6-chloro-4-((4-((cyclobutylmethyl)(4-fluoro-2-methylphenyl)amino)cyclohexyl)(methyl)amino)-1-methyl-2-oxo-1,2-dihydro-1,5-naphthyridine-3-carbonitrile], the concentration for half-maximal inhibition (IC50) on DGKα and on DGKζ was ≥ 1000 nM throughout.
Turning to `COc1cc(F)ccc1N(CC1CC1)[C@H]1CC[C@@H](N(C)c2c(C#N)c(=O)n(C)c3ccc(C#N)nc23)CC1` [Example 31, cis-8-((4-((cyclopropylmethyl)(4-fluoro-2-methoxyphenyl)amino)cyclohexyl)(methyl)amino)-5-methyl-6-oxo-5,6-dihydro-1,5-naphthyridine-2,7-dicarbonitrile], the half-maximal inhibitory concentration (IC50) at DGKα and on DGKζ was 100 to 1000 nM in each case.
As to `COc1cc(F)ccc1N(CC1CCC1)[C@H]1CC[C@H](N(C)c2c(C#N)c(=O)n(C)c3ccc(C#N)nc23)CC1` [Example 120, trans-8-((-4-((cyclobutylmethyl)(4-fluoro-2-methoxyphenyl)amino)cyclohexyl)(methyl)amino)-5-methyl-6-oxo-5,6-dihydro-1,5-naphthyridine-2,7-dicarbonitrile], the figures for the IC50 on DGKα and at DGKζ were 100 to 1000 nM and 10 to 100 nM, respectively.
In the case of `Cc1cc(F)ccc1N(CC1CCCO1)C1CCC(N(C)c2c(C#N)c(=O)n(C)c3ccc(C#N)nc23)CC1` (stereo in doubt) [Example 153, cis-8-((-4-((4-fluoro-2-methylphenyl) ((tetrahydrofuran-2-yl)methyl)amino)cyclohexyl) (methyl)amino)-5-methyl-6-oxo-5,6-dihydro-1,5-naphthyridine-2,7-dicarbonitrile], the half-maximal inhibitory concentration (IC50) at DGKα and on DGKζ was 100 to 1000 nM in each case.
Turning to `CN1C(=O)COc2ccc(N(CC3CC3)[C@H]3CC[C@@H](N(C)c4cc(=O)n(C)c5ccc(C#N)nc45)CC3)cc21` [Example 197, cis-8-((4-((cyclopropylmethyl)(4-methyl-3-oxo-3,4-dihydro-2H-benzo[b][1,4]oxazin-6-yl)amino)cyclohexyl)(methyl)amino)-5-methyl-6-oxo-5,6-dihydro-1,5-naphthyridine-2-carbonitrile], the IC50 at DGKα was 100 to 1000 nM; at DGKζ it was ≥ 1000 nM.
For `COc1cc(F)ccc1N(CC1CC1)[C@H]1CC[C@H](N(C)c2c(C#N)c(=O)n(C)c3ccc(Cl)nc23)CC1` [Example 108, trans-6-chloro-4-((-4-((cyclopropylmethyl)(4-fluoro-2-methoxyphenyl)amino)cyclohexyl)(methyl)amino)-1-methyl-2-oxo-1,2-dihydro-1,5-naphthyridine-3-carbonitrile] the same measures were 10 to 100 nM and 100 to 1000 nM.
On the same counts, the results for `Cn1c(=O)c(C#N)c(N(C)[C@H]2CC[C@@H](N(CC3CC3)c3ccc4c(c3)C(=O)NC4)CC2)c2nc(C#N)ccc21` [Example 202, cis-8-((-4-((cyclopropylmethyl)(3-oxoisoindolin-5-yl)amino)cyclohexyl)(methyl)amino)-5-methyl-6-oxo-5,6-dihydro-1,5-naphthyridine-2,7-dicarbonitrile] are ≥ 1000 nM and ≥ 1000 nM.
Turning to `COc1cc(F)ccc1N(C1CCC1)[C@H]1CC[C@@H](N(C)c2c(C#N)c(=O)n(C)c3ccc(Cl)nc23)CC1` [Example 17, cis-6-chloro-4-((4-(cyclobutyl(4-fluoro-2-methoxyphenyl)amino)cyclohexyl)(methyl)amino)-1-methyl-2-oxo-1,2-dihydro-1,5-naphthyridine-3-carbonitrile], the IC50 on DGKα and at DGKζ was ≥ 1000 nM in each case.
`Cc1cc2c(cc1N(CC1CCC1)[C@H]1CC[C@@H](N(C)c3cc(=O)n(C)c4ccc(C#N)nc34)CC1)OCO2` [Example 150, cis-8-((4-((cyclobutylmethyl)(6-methylbenzo[d][1,3]dioxol-5-yl)amino)cyclohexyl)(methyl)amino)-5-methyl-6-oxo-5,6-dihydro-1,5-naphthyridine-2-carbonitrile]: the concentration for half-maximal inhibition (IC50) is 100 to 1000 nM on DGKα and 10 to 100 nM at DGKζ.
For `Cn1c(=O)c(C#N)c(N(C)[C@H]2CC[C@H](N(CC3COC3)c3ccc(F)cc3)CC2)c2nc(Cl)ccc21` [Example 3N, trans-6-Chloro-4-[[4-(N-4-fluorophenyl-N-oxetan-3-ylmethylanilino)cyclohexyl]-methylamino]-1-methyl-2-oxo-1,2-dihydro-1,5-naphthyridine-3-carbonitrile] the same measures were 10 to 100 nM and ≥ 1000 nM.
For `Cn1c(=O)c(C#N)c(N(C)[C@H]2CC[C@@H](N(CC3COCCO3)c3ccc4c(c3)OCCO4)CC2)c2nc(C#N)ccc21` (stereo partly drawn) [Example 182, cis-8-((4-(((1,4-dioxan-2-yl)methyl)(2,3-dihydrobenzo[b][1,4]dioxin-6-yl)amino)cyclohexyl) (methyl)amino)-5-methyl-6-oxo-5,6-dihydro-1,5-naphthyridine-2,7-dicarbonitrile] the same measures were ≥ 1000 nM and < 10 nM.
For `CC(C)CN(c1ccc(F)cc1)[C@H]1CC[C@@H](N(C)c2c(C#N)c(=O)n(C)c3ccc(C#N)nc23)CC1` [Example 52, cis-8-((-4-((4-fluorophenyl)(isobutyl)amino)cyclohexyl)(methyl)amino)-5-methyl-6-oxo-5,6-dihydro-1,5-naphthyridine-2,7-dicarbonitrile] the same measures were < 10 nM and 10 to 100 nM.
